Assays:
[1] = target: BRAF-MEK-ERK cascade [BRAF-MEK-ERK 캐스케이드]; experiment: BRAF-MEK-ERK cascade assay (TR-FRET, recombinant enzymes); type: biochemical, human; conditions: mean ± SEM, n=3; 100 μM ATP; 45 min pre-incubation, 90 min kinase reaction
[2] = Pharmacokinetics in athymic nude rats; type: in vivo, rat; conditions: one-way ANOVA versus Example 1
A375 cells [A375 세포] = experiment: A375 cell viability assay (XTT); type: cell-based; conditions: Homo sapiens, A-375, 72 h, 3 days after compound addition
A375 P-Erk = A375 P-Erk (In-Cell-Western); type: cell-based; conditions: A-375; A375 human melanoma cells, 3 h compound treatment, triplicate; 100% inhibition = reference inhibitor at highest test concentration

Row | IC50 [1] | PK parameters compared with Example 1 [2] | GI50 (A375 cells [A375 세포]) | EC50 (A375 P-Erk) | Structure (SMILES)
1 | 0.0016 ± 0.0001 µM | 증진된 PK-파라미터 | 0.0296 µM | 0.0156 µM | O=S(=O)(Nc1c(Nc2ccc(I)cc2F)c(F)c(F)c2ccoc12)C1(C[C@@H](O)CO)CC1 (single isomer, unassigned) [실시예 1B]
2 | 0.002 ± 0.00025 µM | 증진된 PK-파라미터 | 0.0134 µM | 0.0064 µM | O=S(=O)(Nc1c(Nc2ccc(I)cc2F)c(F)c(F)c2ccoc12)C1(C[C@H](O)CO)CC1 (single isomer, unassigned) [실시예 1A]
3 | 0.0021 ± 0.00058 µM |  | 0.0176 µM | 0.0122 µM | O=S(=O)(Nc1c(Nc2ccc(I)cc2F)c(F)c(F)c2ccoc12)C1(CC(O)CO)CC1 (racemic) [실시예 1, 1-(2,3-디히드록시-프로필)-시클로프로판술폰산 [4,5-디플루오로-6-(2-플루오로-4-아이오도-페닐아미노)-벤조푸란-7-일]아미드]

Source: patent KR20140034898A, “헤테로시클릭 술폰아미드 유도체” (노파르티스 아게, priority 2011, dated 2012)
